# Experiments:
# ECHCG [1] = test: Pre-emergence herbicidal action against ECHCG; type: in vivo, Echinochloa crus-galli; details: 80 g/ha
# Method in brief: (§1)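 Visual rating at 3 weeks vs untreated pots; 0–100% scale, 100% = plants died. Treatment: aqueous WP/EC spray onto covering soil, 600–800 l/ha, 0.2% wetter, seeds in sandy loam.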
# LOLRI = test: Pre-emergence herbicidal action against LOLRI; type: in vivo, Lolium rigidum; details: 80 g/ha
# Method in brief: as §1
# PHBPU [2] = test: Post-emergence herbicidal action against PHBPU; type: in vivo, Pharbitis purpurea
# Method in brief: (§2)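 Greenhouse pot plants in sandy loam were sprayed at the one-leaf stage, 2 to 3 weeks after sowing, with WP or EC formulations as aqueous suspension or emulsion (600 to 800 l/ha water, 0.2% wetting agent). About 3 weeks later, damage was scored visually against untreated controls as % action (100% = dead, 0% = like control).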
# AMARE [3] = test: Pre-emergence herbicidal action against AMARE; type: in vivo, Amaranthus retroflexus
# Method in brief: as §1
# AVEFA [4] = test: Post-emergence herbicidal action against AVEFA; type: in vivo, Avena fatua; details: 20 g/ha, visual assessment about 3 weeks after treatment, 100% = plants have died, 0% = like control plants
# Method in brief: as §2
# STEME [5] = test: Post-emergence herbicidal action against STEME; type: in vivo, Stellaria media
# Method in brief: as §2
# MATIN [6] = test: Pre-emergence herbicidal action against MATIN; type: in vivo, Matricaria inodora
# Method in brief: as §1
# VIOTR [7] = test: Post-emergence herbicidal action against VIOTR; type: in vivo, Viola tricolor
# Method in brief: as §2
# ALOMY [8] = test: Pre-emergence herbicidal action against ALOMY; type: in vivo, Alopecurus myosuroides; details: 80 g/ha, pre-emergence, scored visually after 3 weeks vs untreated controls (100% = plants have died, 0% = like control plants)
# Method in brief: as §1
# STEME [9] = test: Pre-emergence herbicidal action against STEME; type: in vivo, Stellaria media
# Method in brief: as §1
# HORMU [10] = test: Pre-emergence herbicidal action against HORMU; type: in vivo, Hordeum murinum; details: 80 g/ha, pre-emergence
# Method in brief: as §1
# ABUTH [11] = test: Post-emergence herbicidal action against ABUTH; type: in vivo, Abutilon theophrasti; details: visual assessment about 3 weeks after treatment vs untreated controls
# Method in brief: as §2
# VIOTR [12] = test: Pre-emergence herbicidal action against VIOTR; type: in vivo, Viola tricolor
# Method in brief: as §1
# SETVI [13] = test: Pre-emergence herbicidal action against SETVI; type: in vivo, Setaria viridis; details: dosage 80 g/ha
# Method in brief: as §1
# ABUTH [14] = test: Pre-emergence herbicidal action against ABUTH; type: in vivo, Abutilon theophrasti
# Method in brief: as §1
# ALOMY [15] = test: Post-emergence herbicidal action against ALOMY; type: in vivo, Alopecurus myosuroides; details: dosage 20 g/ha, visual assessment about 3 weeks after treatment vs untreated controls
# Method in brief: as §2
# DIGSA [16] = test: Post-emergence herbicidal action against DIGSA; type: in vivo, Digitaria sanguinalis
# Method in brief: as §2
# VERPE [17] = test: Pre-emergence herbicidal action against VERPE; type: in vivo, Veronica persica; details: dosage 80 g/ha
# Method in brief: as §1
# AVEFA [18] = test: Pre-emergence herbicidal action against AVEFA; type: in vivo, Avena fatua; details: 80 g/ha, pre-emergence
# Method in brief: as §1
# PHBPU [19] = test: Pre-emergence herbicidal action against PHBPU; type: in vivo, Pharbitis purpurea; details: dosage 80 g/ha
# Method in brief: as §1
# SETVI [20] = test: Post-emergence herbicidal action against SETVI; type: in vivo, Setaria viridis
# Method in brief: as §2
# MATIN [21] = test: Post-emergence herbicidal action against MATIN; type: in vivo, Matricaria inodora; details: dosage 20 g/ha
# Method in brief: as §2
# HORMU [22] = test: Post-emergence herbicidal action against HORMU; type: in vivo, Hordeum murinum; details: dosage 20 g/ha
# Method in brief: as §2
# POLCO = test: Pre-emergence herbicidal action against POLCO; type: in vivo, Polygonum convolvulus; details: dosage 80 g/ha
# Method in brief: as §1
# ECHCG [23] = test: Post-emergence herbicidal action against ECHCG; type: in vivo, Echinochloa crus-galli
# Method in brief: as §2
# DIGSA [24] = test: Pre-emergence herbicidal action against DIGSA; type: in vivo, Digitaria sanguinalis
# Method in brief: as §1
# AMARE [25] = test: Post-emergence herbicidal action against AMARE; type: in vivo, Amaranthus retroflexus; details: 20 g/ha, visual assessment about 3 weeks after treatment, 100% = plants have died, 0% = like control plants
# Method in brief: as §2
# VERPE [26] = test: Post-emergence herbicidal action against VERPE; type: in vivo, Veronica persica; details: 20 g/ha
# Method in brief: as §2
# [27] = 80 g/ha, scored visually after 3 weeks vs untreated controls (100% = plants have died, 0% = like control plants)
structure (smiles),measurement,setting,value
CCNC(=O)c1c(C(F)F)ccc(C(=O)Nc2nnnn2CC)c1SC [Example 2-88],Pre-emergence action against ECHCG in %,ECHCG [1],100%
same,Pre-emergence action against LOLRI in %,LOLRI,80%
same,Post-emergence action against PHBPU in %,PHBPU [2]; dosage 5 g/ha,80%
same,Post-emergence action against PHBPU in %,PHBPU [2]; dosage 20 g/ha,90%
same,Pre-emergence action against AMARE in %,"AMARE [3]; 20 g/ha, scored visually after 3 weeks vs untreated controls, 100% = plants have died, 0% = like control plants",100%
same,Pre-emergence action against AMARE in %,AMARE [3]; [27],100%
same,Post-emergence action at 20 g/ha against AVEFA in %,AVEFA [4],80%
same,Post-emergence action against STEME in %,STEME [5]; 20 g/ha,100%
same,Post-emergence action against STEME in %,STEME [5]; dosage 5 g/ha,90%
same,Pre-emergence action against MATIN in %,MATIN [6]; dosage 20 g/ha,100%
same,Pre-emergence action against MATIN in %,MATIN [6]; dosage 80 g/ha,100%
same,Post-emergence action against VIOTR in %,VIOTR [7]; 5 g/ha,80%
same,Post-emergence action against VIOTR in %,VIOTR [7]; 20 g/ha,90%
same,Pre-emergence action against ALOMY (herbicidal activity),ALOMY [8],90%
same,Pre-emergence action against STEME in %,STEME [9]; dosage 20 g/ha,100%
same,Pre-emergence action against STEME in %,STEME [9]; dosage 80 g/ha,100%
same,Pre-emergence action against HORMU in %,HORMU [10],80%
same,Post-emergence action against ABUTH in %,ABUTH [11]; dosage 5 g/ha,90%
same,Post-emergence action against ABUTH in %,ABUTH [11]; dosage 20 g/ha,90%
same,Pre-emergence action against VIOTR in %,VIOTR [12]; dosage 20 g/ha,100%
same,Pre-emergence action against VIOTR in %,VIOTR [12]; dosage 80 g/ha,100%
same,Pre-emergence action against SETVI in %,SETVI [13],100%
same,Pre-emergence action against ABUTH (herbicidal activity),ABUTH [14]; [27],100%
same,Pre-emergence action against ABUTH (herbicidal activity in percent),"ABUTH [14]; dosage 20 g/ha, scored visually after 3 weeks vs untreated controls, 100% = plants have died, 0% = like control plants",100%
same,Post-emergence action against ALOMY in %,ALOMY [15],80%
same,Post-emergence action against DIGSA in %,DIGSA [16]; 5 g/ha,90%
same,Post-emergence action against DIGSA,DIGSA [16]; 20 g/ha,90%
same,Pre-emergence action against VERPE in %,VERPE [17],100%
same,Pre-emergence action against AVEFA in %,AVEFA [18],90%
same,Pre-emergence action against PHBPU in %,PHBPU [19],90%
same,Post-emergence action against SETVI in %,SETVI [20]; dosage 5 g/ha,90%
same,Post-emergence action against SETVI in %,SETVI [20]; dosage 20 g/ha,100%
same,Post-emergence action against MATIN in %,MATIN [21],80%
same,Post-emergence action against HORMU in %,HORMU [22],80%
same,Pre-emergence action against POLCO in %,POLCO,90%
same,Post-emergence action against ECHCG in %,ECHCG [23]; dosage 5 g/ha,80%
same,Post-emergence action against ECHCG in %,ECHCG [23]; dosage 20 g/ha,80%
same,Pre-emergence action against DIGSA in %,DIGSA [24]; dosage 20 g/ha,100%
same,Pre-emergence action against DIGSA in %,DIGSA [24]; dosage 80 g/ha,100%
same,Post-emergence action at 20 g/ha against AMARE in %,AMARE [25],90%
same,Post-emergence action against VERPE in %,VERPE [26],80%
